Assays:
CSIF [1] = assay: Dox-induced MyoD1+MYOG conversion to myocytes, rMLC3-GFP reporter; format: cell-based, chicken; conditions: Dox-induced MyoD1+MYOG expression for 11 or 30 days
From the text: FIGS. 5A-E depict conversion of CSIF to myocytes. FIG. 5A—Phase image of CSIF expressing Dox-inducible MyoD1 and Myogenin (MYOG) for 6 days (“d6”). FIGS. 5B-C—CSIF expressing rat myosin light chain COP-GFP reporter (rMLC3-GFP) following Dox-induced MyoD1+MYOG expression for 11 days (FIG. 5B) or 30 days (FIG. 5C). About 2-4% of the cultures become positive for MLC3 (Green). MLC3 positive myoblasts maintain elongated fiber morphology for over 30 days in vitro (FIG. 5C). FIG. 5D—Fluorescence staining using phalloidin (F-Actin probe, green) showing multinucleated cells (syncytia) as well as some striation following 7 days in culture. Nuclei are stained with Hoechst (blue). FIG. 5E—Immunofluorescence staining for α1-skeletal muscle actin (ACTA1, green) and Troponin T (red) showing a clear muscle phenotype by day 7 of induction. Nuclei are stained with Hoechst (blue).
To examine if similar conversion of chicken cells to myocytes is possible, the present inventor generated several nucleic acid constructs (vectors) as is schematically illustrated in FIGS. 6-8 and 12. […] A second lentiviral vector (SEQ ID NO:2, FIG. 7) was created for Dox-inducible chicken MYOG expression included the cMyogenin coding sequence (SEQ ID NO: 7) under the control of the minimal CMV promoter (SEQ ID NO: 8). […]

CSIF [2] = assay: Serum-free medium development: sulforhodamine B stain and protein content after 72 hours; format: cell-based, chicken; conditions: for Effect on CSIF growth / proliferation: supplement added to minimal serum-free medium, bFGF 10 ng/ml, EGF 5 ng/ml, PGE2 0.01 μM, GH 10 ng/ml
Protocol: FIGS. 3A-F depict the development and identification of serum-free medium for CSIF propagation. Shown are sulforhodamine B stain (FIGS. 3A-E) and protein content quantification (FIG. 3F) following 72 hours of culture with 15% serum (“FBS”), minimal serum-free medium (MIN) alone (FIG. 3B) or with 10 ng/ml basic Fibroblast Growth Factor (bFGF, FIG. 3C), 5 ng/ml Epidermal Growth Factor (EGF, FIG. 3D), 0.01 μM Prostaglandin E2 (PGE2, FIG. 3E), or 10 ng/ml Growth Hormone. Serum-free medium (SFM) contained MIN medium supplemented with bFGF (10 ng/ml), EGF (5 ng/ml), and PGE2 ([…]).
(§1) To develop a serum-free medium that supports the culture of CEF and CS IF, the present inventor formulated a minimal medium composed of DMEM/F12 supplemented with 0.1 μM dexamethasone, 10 μg/ml insulin, 5.5 μg/ml transferrin, and 5 ng/ml selenium (ITS), 12 μM linoleic and 12 μM oleic acids, and 2 mM of L-Analyl-L-Glutamine. Cells were plated in FBS containing medium, and transferred to minimal medium after overnight attachment. Basal medium was supplemented with growth factors and hormones showing that while heparin and T3 had little effect of CSIF growth (data not shown), the addition of basic Fibroblast Growth Factor (bFGF, 10 ng/ml) was essential (FIGS. 3C and 3F), showing 20±2 hours doubling time (data not shown).

[3] = system: primary chicken embryonic fibroblasts (CEF); assay: Proliferation of primary CEF in serum-free media / with supplements; format: cell-based; conditions: serum-free medium, or minimal medium plus supplement (EGF 5 ng/ml, PGE2 0.01 μM, GH 10 ng/ml)
Protocol: as §1, with “The CSIFs readily grow on tissue culture plastic in DMEM/F12 medium supplemented with 15% FBS, and 2 mM of […] (FIG. 2D). There are several serum-free medium formulations for the growth of human and mouse fibroblasts, including PCS-201-040 (ATCC) and […] To” for “To”, “[…].” for “L-Analyl-L-Glutamine.”

[4] = system: stromal-vascular cells derived from chicken adipose tissues; conditions: oleic acid 200-400 μM, in the presence of serum; cited from earlier work
CSIF [5] = assay: Conversion of CSIF to adipocytes in serum-free medium (LipidTOX neutral lipid stain); format: cell-based, chicken
Protocol: FIGS. 4A-D depict conversion of CSIF to adipocytes in serum-free medium. FIGS. 4A-C. LipidTOX™ (Thermo Fisher Scientific) neutral lipid stain of serum-free cultures of CSIF exposed to either 400 μM oleic acid (OA) alone (FIG. 4A) or with 0.5 mM IBMX (OA+IBMX, FIG. 4B), or 10 μM Rosiglitazone (OA+TZD, FIG. 4C) for 7 days. […] FIG. 4D—Normalized intracellular lipid content (in arbitrary fluorescent units) of CSIF cultures treated for 4 and 7 days as prescribed above.
To develop a protocol for conversion of the spontaneously immortalized chicken fibroblasts (CSIF line) under serum-free conditions, the present inventor seeded the CSIF at 70% confluence in the optimized serum-free DMEM/F12 medium supplemented with dexamethasone (0.1 μM), 1×ITS+3 (Sigma, 12771), and bFGF (10 ng/ml). The CSIF cells were treated for 4 or 7 days with 200 to 400 μM oleic acid alone, or in combination with 0.5 mM IBMX, or 10 μM of the FDA-approved small molecule Rosiglitazone.

primary CEF = conditions: oleic acid 400 μM with 20% serum; selenium 100-300 μg/l with 2% serum; cited from earlier work

Molecule: C[C@H]1c2cccc(O)c2C(=O)C2=C(O)[C@]3(O)C(=O)C(C(N)=O)=C(O)[C@@H](N(C)C)[C@@H]3[C@@H](O)[C@@H]21 [doxycycline, Doxycycline]
- Cultures positive for MLC3 (CSIF [1]): 2-4%

Molecule: CCCCC[C@H](O)/C=C/[C@H]1[C@H](O)CC(=O)[C@@H]1C/C=C\CCCC(=O)O [PGE2, Prostaglandin E2]
- Effect on CSIF growth / proliferation (CSIF [2]): supported the proliferation
- Proliferation of primary CEF [3]: supported the proliferation

Molecule: bFGF: basic fibroblast growth factor
- Doubling time (CSIF [2]; minimal medium plus bFGF 10 ng/ml (data not shown)): 20 ± 2 h
- Effect on CSIF growth / proliferation (CSIF [2]): essential

Molecule: CC(C)Cn1c(=O)n(C)c(=O)c2[nH]cnc21 [IBMX, 3-isobutyl-1-methylxanthine]
- Differentiation of chicken preadipocytes to adipocytes [4]: no affect
- Normalized intracellular lipid content (CSIF [5]; 4 and 7 days, 400 μM OA with small molecule (FIG. 4D)): optimal results
- Adipogenesis (neutral lipid stain) (CSIF [5]; 7 days, with 400 μM oleic acid, IBMX 0.5 mM, Rosiglitazone 10 μM): strong adipogenesis
- Adipogenic phenotype (cell shape) (CSIF [5]; added to oleic acid, IBMX 0.5 mM, Rosiglitazone 10 μM): supported a rounded adipogenic phenotype

Molecule: N[C@@H](Cc1cc(I)c(Oc2ccc(O)c(I)c2)c(I)c1)C(=O)O [T3]
- Effect on CSIF growth / proliferation (CSIF [2]): little effect

Molecule: heparin
- Effect on CSIF growth / proliferation (CSIF [2]): little effect

Molecule: CCCCCCCC/C=C\CCCCCCCC(=O)O [oleic acid]
- Differentiation of chicken preadipocytes to adipocytes [4]: induces their differentiation to adipocytes
- Lipid accumulation (CSIF [5]; 200 to 400 μM oleic acid, 4 or 7 days, serum-free): increased lipid accumulation
- Lipid accumulation in primary CEF (primary CEF): induced lipid accumulation

Molecule: GH: Growth Hormone
- Effect on CSIF growth / proliferation (CSIF [2]): supported the proliferation
- Proliferation of primary CEF [3]: supported the proliferation

From patent US12325866B2, “Systems and methods for growing cells in vitro” (Yissum Research Development Company of the Hebrew …, priority 2016, dated 2025)
